According to patent publication US7524823B2, “Macrolides” (Basilea Pharmaceutica AG, priority 2005, dated 2009):
Converted amounts (≈) assume the structure as drawn. Like-named read-outs stand apart in the source and are kept apart here.

Experiments:
Assay type in all cases: cell-based
[1] = system: Propionibacterium acnes EG7NS; experiment: MIC by anaerobic broth microdilution (WCB, NCCLS); conditions: 48 h
Description: (§1) MIC values towards strains of propionibacteria were obtained by broth microdilution using WCB (Anaerobe Broth MIC, Difco) according to NCCLS guidelines (National Committee for Clinical Laboratory Standards. Methods for anti-microbial susceptibility testing of anaerobic bacteria, 5th ed.; approved standard. NCCLS publication no. M11-A5. NCCLS, Wayne, Pa., 2001). Microtitre plates were loaded into 7-L GENbox anaerobic incubation jars (BioMérieux, cat. no. 96 128) fitted with anaerobic atmosphere generators (BioMérieux, cat. no. 96 124) and a Dry Anaerobic Indicator Strip (BBL, cat. no. 271051). Under these conditions, an O2 concentration <0.1% was achieved by 2.5 h, and a CO2 concentration >15% by 24 h. MIC values were read after incubation at 35-37° C. for 48 h (Table 3).

[2] = system: Propionibacterium acnes SW101T; experiment: MIC by anaerobic broth microdilution (WCB, NCCLS); conditions: code K: Propionibacterium acnes SW101T, 35-37° C., 48 h
Description: as §1

[3] = system: Haemophilus influenzae QK50; experiment: MIC by broth microdilution (CAMHB + 5% Fildes enrichment, NCCLS)
Description: (§2) MIC values for non-anaerobes were obtained by broth microdilution using CAMHB (BBL) according to NCCLS guidelines (National Committee for Clinical Laboratory Standards. Methods for dilution antimicrobial susceptibility tests for bacteria that grow aerobically, 5th ed. Approved standard M7-A6. NCCLS, Wayne, Pa., 2003). Drugs were dissolved in DMSO prior to dispensing into 96-well microtitre plates; the concentration of DMSO in assay wells never exceeded 2% (v/v). CAMHB was supplemented with 5% (v/v) horse serum (Sigma, cat. no. H-1270) in lieu of laked horse blood for cultivation of Streptococcus pneumoniae, and with 5% (v/v) Fildes enrichment (BBL, cat. no. 220810) supernate in lieu of Haemophilus Test Medium and additives for cultivation of Haemophilus influenzae (Pankuch G A, Hoellman D B, Lin G, Bajaksouzian S, Jacobs M R, Appelbaum P C. Activity of HMR 3647 compared to those of five agents against Haemophilus influenzae and Moraxella catarrhalis by MIC determination and time-kill assay. Antimicrob. Agents Chemother. November 1998; 42(11): 3032-4). Activities expressed as the minimal inhibitory concentrations (MICs) (μg/ml) are given in the following Table 3, and the microorganisms used for testing are listed in Table 2 below.

[4] = system: Haemophilus influenzae 12214; experiment: as above
Description: as §2

[5] = system: Staphylococcus aureus 1086; experiment: MIC by broth microdilution (CAMHB, NCCLS); conditions: code B: Staphylococcus aureus 1086
Description: as §2

[6] = system: Escherichia coli ATCC 25922; experiment: MIC by broth microdilution (CAMHB, NCCLS); conditions: code C: Escherichia coli ATCC 25922
Description: as §2

[7] = system: Staphylococcus aureus ATCC 29213; experiment: MIC by broth microdilution (CAMHB, NCCLS); conditions: code A: Staphylococcus aureus ATCC 29213
Description: as §2

[8] = system: Streptococcus pneumoniae 1/1; experiment: MIC by broth microdilution (CAMHB + 5% horse serum, NCCLS); conditions: code D: Streptococcus pneumoniae 1/1
Description: as §2

[9] = system: Streptococcus pneumoniae SL199T; experiment: as above; conditions: code E: Streptococcus pneumoniae SL199T
Description: as §2

[10] = system: Streptococcus pneumoniae Tupelo; experiment: as above; conditions: code F: Streptococcus pneumoniae Tupelo
Description: as §2

Human neutrophils = experiment: Modulation of neutrophil elastase production; conditions: test compound 50 μM; fMLP 0.1 μM, cytochalasin B 5 mg/L; blood from 3 donors
Source text: The neutrophil granulocyte is a key element of the inflammatory process. The neutrophils migrate to the site of inflammation and can be activated to release toxic products, including proteolytic enzymes such as elastase. […] Elastase is a major secreted product of activated neutrophils and is a major contributor to the destruction of tissue in inflammatory disease. Several bioassays based on the repression of secretion of elastase, have been described and used for the detection of anti-inflammatory products (Johansson, […]. Nat. Prod. 65: 32-41). […] The neutrophils are activated by addition of the bacterial product N-formyl methionyl-leucyl-phenylalanine (fMLP) and cytochalasin B, a stimulator of secretion. The amount of elastase secreted is determined by measuring the reaction of elastase with the chromogenic substrate succinyl-alanyl-alanyl-valyl-nitroanilide ([…]), which generates 4-nitroaniline after cleavage by elastase. […] Human neutrophils are isolated by applying whole heparinized blood to a Histopaque column and collecting the granulocytes by centrifugation. […] The total volume of the reaction mixture is 0.8 mL and concentrations specified are the final concentrations in the mixture. […] Neutrophil preparations from blood from 3 different donors were used in parallel. All samples were measured in duplicate. Results are given as % repression of activation of neutrophils in the following Table 5.

[11] = Cutibacterium acnes, read-out: MIC
[12] = code H: Haemophilus influenzae QK50, read-out: MIC
[13] = code G: Haemophilus influenzae 12214, read-out: MIC
[14] = Cutibacterium acnes, code I: Propionibacterium acnes EG7NS, anaerobic, 35-37° C., read-out: MIC
[15] = code I: Propionibacterium acnes EG7NS, anaerobic, 35-37° C.
[16] = code H: Haemophilus influenzae QK50
[17] = code G: Haemophilus influenzae 12214

| Structure (SMILES) | MIC [3, 12] [µg/mL] | MIC [4, 13] [µg/mL] | MIC [1, 14] [µg/mL] | MIC [1, 15] | MIC [2] [µg/mL] | MIC [3, 16] [µg/mL] | MIC [4, 17] [µg/mL] | MIC [5] | MIC [6] | MIC [7] [µg/mL] | MIC [8] | MIC [9] [µg/mL] | MIC [2, 11] [µg/mL] | MIC ([5]; read-out: MIC) [µg/mL] | MIC ([6]; ATCC25922, read-out: MIC) [µg/mL] | MIC ([7]; ATCC29213, read-out: MIC) [µg/mL] | MIC ([8]; read-out: MIC) [µg/mL] | MIC ([9]; read-out: MIC) [µg/mL] | MIC ([10]; read-out: MIC) [µg/mL] | Average repression of activation (%) (Human neutrophils) | also measured |
| --- | --- | --- | --- | --- | --- | --- | --- | --- | --- | --- | --- | --- | --- | --- | --- | --- | --- | --- | --- | --- | --- |
| CC[C@H]1OC(=O)[C@H](C)[C@@H](O[C@H]2C[C@@](C)(OC)[C@@H](O)[C@H](C)O2)[C@H](C)[C@@H](O[C@@H]2O[C@H](C)C[C@H](N(C)C)[C@H]2O)[C@](C)(O)C[C@@H](C)C(=O)[C@H](C)[C@@H](O)[C@]1(C)O [Erythromycin, reference compound] | 2 | 4 |  |  |  |  |  |  |  |  |  |  | > 32 | > 32 | > 32 | 0.5 (≈ 0.681 µM) | ≤ 0.06 | > 32 | 8 | 5 ± 0.30 | MIC ([1]; Cutibacterium acnes, EG7NS): 0.125 µg/mL (≈ 0.17 µM) |
| CC[C@H]1OC(=O)[C@H](C)[C@@H](O[C@H]2C[C@@](C)(OC)[C@@H](O)[C@H](C)O2)[C@H](C)[C@@H](O[C@@H]2O[C@H](C)C[C@H](N(C)C)[C@H]2O)[C@](C)(OC)C[C@@H](C)C(=O)[C@H](C)[C@H]2[C@H](SCCn3cnc4c(N)ncnc43)C(=O)O[C@@]21C [Example 1, (3S, 3aR, 4R, 6R, 8R, 9R, 10S, 11S, 12R, 15R, 15aS)-3-[[2-[6-amino-9H-purin-9-yl]ethyl]thio]-11-[[2,6-dideoxy-3-C-methyl-3-O-methyl-α-L-ribo-hexopyranosyl]oxy]-15-ethyldecahydro-8-methoxy-4,6,8,10,12,15a-hexamethyl-9-[[3,4,6-trideoxy-3-(dimethylamino)-β-D-xylo-hexopyranosyl]oxy]-2H-furo [2,3-c]oxacyclotetradecin-2,5,13 (3H,6H)-trione] | 0.5 | 1 | ≤ 0.06 |  |  |  |  |  |  |  |  |  | 1 (≈ 1.04 µM) | ≥ 32 | ≥ 32 | 1 (≈ 1.04 µM) | ≤ 0.06 | 0.125 | 0.5 | 19 ± 0.6 |  |
| CC[C@H]1OC(=O)[C@H](C)[C@@H](O[C@H]2C[C@@](C)(OC)[C@@H](O)[C@H](C)O2)[C@H](C)[C@@H](O[C@@H]2O[C@H](C)C[C@H](N(C)C)[C@H]2O)[C@](C)(OC)C[C@@H](C)C(=O)[C@H](C)[C@H]2[C@H](SCCn3cnc4cccnc43)C(=O)O[C@@]21C [Example 4, (3S, 3aR, 4R, 6R, 8R, 9R, 10S, 11S, 12R, 15R, 15aS)-11-[[2,6-dideoxy-3-C-methyl-3-O-methyl-α-L-ribo-hexopyranosyl]oxy]-15-ethyldecahydro-8-methoxy-4,6,8,10,12,15a-hexamethyl-3-[[2-[3H-imidazo[4,5-b]pyridin-3-yl]ethyl]thio]-9-[[3,4,6-trideoxy-3-(dimethylamino)-β-D-xylo-hexopyranosyl]oxy]-2H-furo [2,3-c] oxacyclotetradecin-2,5,13 (3H,6H)-trione] |  |  | 0.125 (≈ 0.132 µM) |  |  |  |  |  |  |  |  |  | 4 (≈ 4.21 µM) | ≥ 32 | 32 (≈ 33.7 µM) | 1 (≈ 1.05 µM) | ≤ 0.06 | 0.5 | 0.5 | 31 ± 2.4 | MIC ([3]; Haemophilus influenzae, QK50): 2 µg/mL; MIC ([4]; Haemophilus influenzae, 12214): 2 µg/mL |

Second part, led by results:

| MIC [3, 12] [µg/mL] | MIC [4, 13] [µg/mL] | MIC [1, 14] [µg/mL] | MIC [1, 15] | MIC [2] [µg/mL] | MIC [3, 16] [µg/mL] | MIC [4, 17] [µg/mL] | MIC [5] | MIC [6] | MIC [7] [µg/mL] | MIC [8] | MIC [9] [µg/mL] | Structure (SMILES) | MIC [2, 11] [µg/mL] | MIC ([5]; read-out: MIC) [µg/mL] | MIC ([6]; ATCC25922, read-out: MIC) [µg/mL] | MIC ([7]; ATCC29213, read-out: MIC) [µg/mL] | MIC ([8]; read-out: MIC) [µg/mL] | MIC ([9]; read-out: MIC) [µg/mL] | MIC ([10]; read-out: MIC) [µg/mL] | Average repression of activation (%) (Human neutrophils) | also measured |
| --- | --- | --- | --- | --- | --- | --- | --- | --- | --- | --- | --- | --- | --- | --- | --- | --- | --- | --- | --- | --- | --- |
|  |  |  | <=0.06 μg/ml | 2 (≈ 2.04 µM) | 2 | 2 | >=32 μg/ml | >=32 μg/ml | 8 (≈ 8.16 µM) | <=0.06 μg/ml | 0.125 | CC[C@H]1OC(=O)[C@H](C)[C@@H](O[C@H]2C[C@@](C)(OC)[C@@H](O)[C@H](C)O2)[C@H](C)[C@@H](O[C@@H]2O[C@H](C)C[C@H](N(C)C)[C@H]2O)[C@](C)(OC)C[C@@H](C)C(=O)[C@H](C)[C@H]2[C@H](SCCn3cnc4c(N)nc(N)nc43)C(=O)O[C@@]21C [Example 11] |  |  |  |  |  |  |  | 20 ± 0.97 | MIC [10]: 1 µg/mL |
|  |  |  | <=0.06 μg/ml | >32 | 4 | 4 | >32 µg/mL | 32 µg/mL (≈ 33.1 µM) | 1 (≈ 1.03 µM) | <=0.06 μg/ml | 4 | CC[C@H]1OC(=O)[C@H](C)[C@@H](O[C@H]2C[C@@](C)(OC)[C@@H](O)[C@H](C)O2)[C@H](C)[C@@H](O[C@@H]2O[C@H](C)C[C@H](N(C)C)[C@H]2O)[C@](C)(OC)C[C@@H](C)C(=O)[C@H](C)[C@H]2[C@H](SCC(=O)c3ccc4c(c3)OCO4)C(=O)O[C@@]21C [Example 29] |  |  |  |  |  |  |  |  | MIC [10]: 4 µg/mL |
| 1 | 2 | ≤ 0.06 |  |  |  |  |  |  |  |  |  | CC[C@H]1OC(=O)[C@H](C)C(=O)[C@H](C)[C@@H](O[C@@H]2O[C@H](C)C[C@H](N(C)C)[C@H]2O)[C@](C)(OC)C[C@@H](C)C(=O)[C@H](C)[C@H]2N(CCCCn3cnc(-c4cccnc4)c3)C(=O)O[C@]12C [Telithromycin, reference compound] | 16 (≈ 19.7 µM) | 0.25 (≈ 0.308 µM) | > 32 | 0.25 (≈ 0.308 µM) | ≤ 0.06 | ≤ 0.06 | 0.5 |  |  |
